According to ChEMBL document CHEMBL5113497, “Comparison of ATP-binding pockets and discovery of homologous recombination inhibitors” (Bioorg Med Chem, 2022):
The source made the active and inactive calls. The rule behind the calls is not given here.

Legend:
[1] = molecular target: T1, DNA repair protein RAD51 homolog 1 (Homo sapiens) (UniProt Q06609); assay: Inhibition of RAD51 in human U2OS cells at 20 to 80 uM measured by direct repeats green fluorescent protein (DR-GFP) reporter assay; assay type: cell-based; conditions: dose 20-80 µM
T1 sequence (whole entry): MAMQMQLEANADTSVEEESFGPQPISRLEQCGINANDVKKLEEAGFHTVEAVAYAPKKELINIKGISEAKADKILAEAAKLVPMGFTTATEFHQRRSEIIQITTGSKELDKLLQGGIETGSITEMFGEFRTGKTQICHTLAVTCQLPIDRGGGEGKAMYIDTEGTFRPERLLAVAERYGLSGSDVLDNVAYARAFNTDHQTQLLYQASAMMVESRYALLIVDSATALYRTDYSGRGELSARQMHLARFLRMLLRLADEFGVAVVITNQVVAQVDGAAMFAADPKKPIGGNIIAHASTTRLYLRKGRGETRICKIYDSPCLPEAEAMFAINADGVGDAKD

[2] = species on record: Homo sapiens; assay: Inhibition of recombinant human RAD51/p53 (unknown origin) interaction at 200 uM measured by ELISA assay

## C[C@@H]1Cc2ccccc2N1C(=O)COc1ccc(N(C)S(=O)(=O)c2ccccc2)cc1
[1]
  inhibition: Active
[2]
  inhibition: Active

## Cc1ccc(-n2nnnc2SCC(=O)Nc2oc(C)c3c(C)n[nH]c(=O)c23)c(C)c1
[1]
  inhibition: Active
[2]
  inhibition: Active

## Cc1cc(C)c(CNC(=O)c2cccc(S(=O)(=O)N3C[C@H](C)C[C@@H](C)C3)c2)c(=O)[nH]1
[2]
  inhibition: Active

## Nc1ncnc2c1ncn2[C@@H]1O[C@H](COP(=O)(O)OP(=O)(O)OP(=O)(O)O)[C@@H](O)[C@H]1O
[2]
  inhibition: Active

## Cc1c(F)cc(C(N)=O)cc1NC(=O)c1cccc(S(=O)(=O)Nc2ccccc2F)c1
[2]
  inhibition: Active

## Nc1ncnc2c1ncn2[C@@H]1O[C@H](COP(=O)(O)OP(=O)(O)NP(=O)(O)O)[C@@H](O)[C@H]1O
[2]
  inhibition: Active
